Test results reported in ChEMBL document CHEMBL5506031, “Design, Synthesis, Bioactive Evaluation, and Molecular Dynamics Simulation of Novel 4H-Pyrano[3,2-c]pyridine Analogues as Potential Sterol 14α-Demethylase (CYP51) Inhibitors” (J Med Chem, 2024).
Values after ≈ are worked out from the molar mass of the structure shown.

Legend:
Fusarium oxysporum = assay: Fungicidal activity against Fusarium oxysporum assessed as fungal inhibitory rate at 16 ug/ml relative to control; type: functional
Sclerotinia sclerotiorum = assay: Fungicidal activity against Sclerotinia sclerotiorum assessed as fungal inhibitory rate at 16 ug/ml relative to control; type: functional
Botrytis cinerea [1] = assay: Fungicidal activity against Botrytis cinerea assessed as fungal inhibitory rate at 16 ug/ml relative to control; type: functional
Aspergillus niger = assay: Antifungal activity against Aspergillus niger; type: functional
Botrytis cinerea [2] = assay: Fungicidal activity against Botrytis cinerea assessed as fungal growth reduction; type: functional, organism-based
Penicillium digitatum = assay: Fungicidal activity against Penicillium digitatum assessed as fungal inhibitory rate at 16 ug/ml relative to control; type: functional
[3] = Inhibition of Botrytis cinerea CYP51 by ELISA
Colletotrichum lagenaria = assay: Fungicidal activity against Colletotrichum lagenarium assessed as fungal inhibitory rate at 16 ug/ml relative to control; type: functional

Which results are given for `N#CC1=C(N)OC2=C(CN(C(=O)c3ccco3)C/C2=C\c2cccs2)C1c1cccs1` (stereo not drawn)?
inhibition at 16 µg/mL (Fusarium oxysporum): 23.8%; inhibition at 16 µg/mL (Sclerotinia sclerotiorum): 27.9%; inhibition at 16 µg/mL (Botrytis cinerea [1]): 62.7%

For `COc1ccc(C2c3ccc4ccccc4c3Oc3[nH]c(=S)[nH]c(=S)c32)cc1` (stereo not drawn), which MIC (Aspergillus niger) is on record?
Its MIC is 125 µg/mL (≈ 309 µM).

Which EC50 (Botrytis cinerea [2]) does the source give for `N#CC1=C(N)OC2=C(CN(C(=O)c3cccs3)C/C2=C\c2ccc(Br)o2)C1c1ccc(Br)o1` (stereo not drawn) here?
Its EC50 is 1.3 µg/mL (≈ 2.21 µM).

And the inhibition at 16 µg/mL (Fusarium oxysporum)?
The inhibition at 16 µg/mL was 55.2%.

What about the inhibition at 16 µg/mL (Sclerotinia sclerotiorum) of the same compound?
Its inhibition at 16 µg/mL is 62.7%.

What about the inhibition at 16 µg/mL (Penicillium digitatum) of the same compound?
Its inhibition at 16 µg/mL is 54.5%.

And the inhibition at 16 µg/mL (Botrytis cinerea [1])?
Its inhibition at 16 µg/mL is 100%.

What about the IC50 [3] of the same compound?
Its IC50 is 1.522 µg/mL (≈ 2.58 µM).

For `COC(=O)C1=C(N)OC2=C(CN(C)C/C2=C\c2ccc(Cl)s2)C1c1ccc(Cl)s1` (stereo not drawn), which inhibition at 16 µg/mL (Colletotrichum lagenaria) is on record?
Its inhibition at 16 µg/mL is 42.9%.

What about the inhibition at 16 µg/mL (Fusarium oxysporum) of the same compound?
Its inhibition at 16 µg/mL is 23.6%.

And the inhibition at 16 µg/mL (Sclerotinia sclerotiorum)?
The inhibition at 16 µg/mL was 49.6%.

What about the inhibition at 16 µg/mL (Penicillium digitatum) of the same compound?
Its inhibition at 16 µg/mL is 30%.

What about the inhibition at 16 µg/mL (Botrytis cinerea [1]) of the same compound?
Its inhibition at 16 µg/mL is 35.2%.

With `N#CC1=C(N)OC2=C(CN(C(=O)c3cccs3)C/C2=C\c2ccc(Br)s2)C1c1ccc(Br)s1` (stereo not drawn) as the compound, how does the EC50 (Botrytis cinerea [2]) read?
The EC50 was 2.71 µg/mL (≈ 4.36 µM).

And the inhibition at 16 µg/mL (Colletotrichum lagenaria)?
Its inhibition at 16 µg/mL is 44.3%.

What about the inhibition at 16 µg/mL (Fusarium oxysporum) of the same compound?
Its inhibition at 16 µg/mL is 41%.

What about the inhibition at 16 µg/mL (Sclerotinia sclerotiorum) of the same compound?
Its inhibition at 16 µg/mL is 48.9%.

And the inhibition at 16 µg/mL (Penicillium digitatum)?
The inhibition at 16 µg/mL was 42.2%.

What about the IC50 [3] of the same compound?
Its IC50 is 3.031 µg/mL (≈ 4.88 µM).

For `COC(=O)C1=C(N)OC2=C(CN(C)C/C2=C\c2ccco2)C1c1ccco1` (stereo not drawn), which inhibition at 16 µg/mL (Colletotrichum lagenaria) is on record?
Its inhibition at 16 µg/mL is 76.5%.

And the inhibition at 16 µg/mL (Fusarium oxysporum)?
Its inhibition at 16 µg/mL is 41.7%.

What about the inhibition at 16 µg/mL (Sclerotinia sclerotiorum) of the same compound?
Its inhibition at 16 µg/mL is 73.7%.

And the inhibition at 16 µg/mL (Penicillium digitatum)?
The inhibition at 16 µg/mL was 60.9%.

What about the inhibition at 16 µg/mL (Botrytis cinerea [1]) of the same compound?
The inhibition at 16 µg/mL was 56.7%.

Which results are given for `CN1CC2=C(OC(N)=C(C#N)C2c2ccc(Br)s2)/C(=C/c2ccc(Br)s2)C1` (stereo not drawn)?
inhibition at 16 µg/mL (Colletotrichum lagenaria): 60.5%; inhibition at 16 µg/mL (Fusarium oxysporum): 31.2%; inhibition at 16 µg/mL (Sclerotinia sclerotiorum): 60.7%; inhibition at 16 µg/mL (Penicillium digitatum): 42.5%; inhibition at 16 µg/mL (Botrytis cinerea [1]): 44.8%

Which MIC (Aspergillus niger) does the source give for `COc1ccc(C2c3ccc4ncccc4c3Oc3nc[nH]c(=S)c32)cc1` (stereo not drawn) here?
The MIC was 125 µg/mL (≈ 335 µM).

Which results are given for `COC(=O)C1=C(N)OC2=C(CN(C(=O)c3cccs3)C/C2=C\c2ccc(Cl)s2)C1c1ccc(Cl)s1` (stereo not drawn)?
EC50 (Botrytis cinerea [2]): 0.824 µg/mL (≈ 1.46 µM); inhibition at 16 µg/mL (Colletotrichum lagenaria): 72.2%; inhibition at 16 µg/mL (Fusarium oxysporum): 72.8%; inhibition at 16 µg/mL (Sclerotinia sclerotiorum): 74.1%; inhibition at 16 µg/mL (Penicillium digitatum): 67.5%; inhibition at 16 µg/mL (Botrytis cinerea [1]): 100%; IC50 [3]: 0.907 µg/mL (≈ 1.6 µM)

What does the source list for `N#CC1=C(N)OC2=C(CN(C(=O)c3ccco3)C/C2=C\c2ccc(Br)o2)C1c1ccc(Br)o1` (stereo not drawn)?
EC50 (Botrytis cinerea [2]): 1.71 µg/mL (≈ 2.98 µM); inhibition at 16 µg/mL (Colletotrichum lagenaria): 55.8%; inhibition at 16 µg/mL (Fusarium oxysporum): 50.5%; inhibition at 16 µg/mL (Sclerotinia sclerotiorum): 55.2%; inhibition at 16 µg/mL (Penicillium digitatum): 49%; inhibition at 16 µg/mL (Botrytis cinerea [1]): 100%; IC50 [3]: 1.86 µg/mL (≈ 3.24 µM)

For `Cc1ccc(/C=C2\CN(C)CC3=C2OC(N)=C(C#N)C3c2ccc(C)s2)s1` (stereo not drawn), which inhibition at 16 µg/mL (Colletotrichum lagenaria) is on record?
The inhibition at 16 µg/mL was 57.6%.

And the inhibition at 16 µg/mL (Fusarium oxysporum)?
The inhibition at 16 µg/mL was 27.6%.

What about the inhibition at 16 µg/mL (Sclerotinia sclerotiorum) of the same compound?
The inhibition at 16 µg/mL was 58.6%.

What about the inhibition at 16 µg/mL (Penicillium digitatum) of the same compound?
The inhibition at 16 µg/mL was 38.9%.

For `Cc1ccc(/C=C2\CN(C(=O)c3ccco3)CC3=C2OC(N)=C(C#N)C3c2ccc(C)o2)o1` (stereo not drawn), which inhibition at 16 µg/mL (Fusarium oxysporum) is on record?
Its inhibition at 16 µg/mL is 38.1%.

What about the inhibition at 16 µg/mL (Sclerotinia sclerotiorum) of the same compound?
The inhibition at 16 µg/mL was 46.2%.

What about the inhibition at 16 µg/mL (Penicillium digitatum) of the same compound?
The inhibition at 16 µg/mL was 39%.

And the inhibition at 16 µg/mL (Botrytis cinerea [1])?
The inhibition at 16 µg/mL was 85.4%.

For `COC(=O)C1=C(N)OC2=C(CN(C)C/C2=C\c2ccc(Br)s2)C1c1ccc(Br)s1` (stereo not drawn), which inhibition at 16 µg/mL (Colletotrichum lagenaria) is on record?
Its inhibition at 16 µg/mL is 33.6%.

And the inhibition at 16 µg/mL (Fusarium oxysporum)?
Its inhibition at 16 µg/mL is 20.3%.

And the inhibition at 16 µg/mL (Sclerotinia sclerotiorum)?
The inhibition at 16 µg/mL was 38.3%.

And the inhibition at 16 µg/mL (Penicillium digitatum)?
Its inhibition at 16 µg/mL is 22.5%.

And the inhibition at 16 µg/mL (Botrytis cinerea [1])?
Its inhibition at 16 µg/mL is 31.6%.

Which EC50 (Botrytis cinerea [2]) does the source give for `N#CC1=C(N)OC2=C(CN(C(=O)c3ccco3)C/C2=C\c2ccc(Cl)s2)C1c1ccc(Cl)s1` (stereo not drawn) here?
Its EC50 is 2.07 µg/mL (≈ 4.01 µM).

And the inhibition at 16 µg/mL (Colletotrichum lagenaria)?
The inhibition at 16 µg/mL was 52.5%.

What about the inhibition at 16 µg/mL (Fusarium oxysporum) of the same compound?
The inhibition at 16 µg/mL was 46.6%.

What about the inhibition at 16 µg/mL (Sclerotinia sclerotiorum) of the same compound?
Its inhibition at 16 µg/mL is 53.5%.

And the inhibition at 16 µg/mL (Penicillium digitatum)?
Its inhibition at 16 µg/mL is 47.1%.

And the inhibition at 16 µg/mL (Botrytis cinerea [1])?
The inhibition at 16 µg/mL was 94%.

What about the IC50 [3] of the same compound?
The IC50 was 2.333 µg/mL (≈ 4.52 µM).

With `Cc1ccc(/C=C2\CN(C)CC3=C2OC(N)=C(C#N)C3c2ccc(C)o2)o1` (stereo not drawn) as the compound, how does the inhibition at 16 µg/mL (Colletotrichum lagenaria) read?
The inhibition at 16 µg/mL was 84.8%.

What about the inhibition at 16 µg/mL (Fusarium oxysporum) of the same compound?
Its inhibition at 16 µg/mL is 48.5%.

What about the inhibition at 16 µg/mL (Sclerotinia sclerotiorum) of the same compound?
Its inhibition at 16 µg/mL is 81.6%.

What about the inhibition at 16 µg/mL (Penicillium digitatum) of the same compound?
Its inhibition at 16 µg/mL is 74%.

What about the inhibition at 16 µg/mL (Botrytis cinerea [1]) of the same compound?
Its inhibition at 16 µg/mL is 65.6%.

Which results are given for `Cc1ccc(/C=C2\CN(C(=O)c3ccco3)CC3=C2OC(N)=C(C#N)C3c2ccc(C)s2)s1` (stereo not drawn)?
inhibition at 16 µg/mL (Colletotrichum lagenaria): 31.1%; inhibition at 16 µg/mL (Fusarium oxysporum): 27.6%; inhibition at 16 µg/mL (Penicillium digitatum): 28.5%; inhibition at 16 µg/mL (Botrytis cinerea [1]): 70.1%

Which inhibition at 16 µg/mL (Fusarium oxysporum) does the source give for `COC(=O)C1=C(N)OC2=C(CN(C)C/C2=C\c2ccc(Br)o2)C1c1ccc(Br)o1` (stereo not drawn) here?
Its inhibition at 16 µg/mL is 45.6%.

And the inhibition at 16 µg/mL (Sclerotinia sclerotiorum)?
The inhibition at 16 µg/mL was 77.4%.

What about the inhibition at 16 µg/mL (Botrytis cinerea [1]) of the same compound?
Its inhibition at 16 µg/mL is 60%.
